Reference: US11964956B2, “Cannabinergic compounds and uses thereof” (Northeastern University, priority 2012, dated 2024)
Where two headings read alike, the source gives them in different places.

Experiments:
mCB2 = molecular target: T1, mCB2 (Mus musculus, UniProt P47936); assay: mCB2 competition-equilibrium binding with [3H]CP-55,940, HEK293 membranes
T1 construct: expressed in transfected cells; host or cells: HEK293
Description: (§1) HEK293 cells expressing hCB1 or hCB2 or mCB2 receptor are used for membrane preparations according to Abadji et al. The resulting pellet is resuspended in 10 mM Tris-chloride, pH 7.4, with 5 mM MgCl2 and 2 mM EDTA (TME), rapidly frozen in liquid nitrogen and stored at −80° C. for no longer than two months. Protein content is assayed by using the Bio-Rad protein assay according to the manufacturer's protocol.
(§2) All the cannabinoids discussed in this invention are tested for their ability to bind to CB 1 and CB2 receptors using membranes from rat brain or HEK293 cells expressing either mCB2 or hCB2, respectively via competition-equilibrium binding using [^3H]CP-55,940. Results are analyzed using nonlinear regression to determine ligand IC50 (Prism by GraphPad Software, Inc.), and Ki values are calculated from the IC50. IC50 and Ki values are determined from at least three independent experiments.
(§3) Some disclosed compounds were tested for CB1 and CB2 receptor binding affinity, which can be represented by a Ki value. The Ki value is the affinity constant and describes the affinity of the compound for the receptor. […] A detailed description of the methods used to test binding affinity of compounds is given in US 2007/0135388 and in Papahatjis, et al., J. Med. Chem. (2007) 4048, the content of each of which is hereby incorporated by reference.

rCB1 [1] = molecular target: T2, rCB1 (Rattus norvegicus, UniProt P20272); assay: cAMP assay, rCB1; assay type: cell-based
T2 sequence (P20272 whole entry): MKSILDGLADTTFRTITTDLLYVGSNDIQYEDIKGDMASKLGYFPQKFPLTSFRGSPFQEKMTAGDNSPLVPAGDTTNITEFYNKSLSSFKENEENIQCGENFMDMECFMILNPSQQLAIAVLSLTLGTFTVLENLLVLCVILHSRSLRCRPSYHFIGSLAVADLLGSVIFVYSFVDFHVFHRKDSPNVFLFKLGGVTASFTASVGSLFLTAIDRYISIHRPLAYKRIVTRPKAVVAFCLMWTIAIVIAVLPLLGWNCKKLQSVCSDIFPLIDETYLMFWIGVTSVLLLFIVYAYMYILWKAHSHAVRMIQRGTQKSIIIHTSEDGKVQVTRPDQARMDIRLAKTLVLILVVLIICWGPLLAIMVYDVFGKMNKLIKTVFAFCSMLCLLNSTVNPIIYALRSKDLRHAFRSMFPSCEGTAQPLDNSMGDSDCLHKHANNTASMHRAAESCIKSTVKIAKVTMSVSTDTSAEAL
Description: (§4) Functional characterization of some of the disclosed compounds was performed by using the cyclic adenosine monophosphate (cAMP) assay. The functional potency of the compound in the cAMP assay is represented by the EC50 value. The lower the EC50 value, the higher the functional potency. A detailed description of the cyclic adenosine monophosphate (cAMP) assay is given in Nikas et al. J. Med. Chem. (2010) 6996, the content of which is incorporated herein by reference. Table 10 lists the EC50 values of certain compounds of Formula (Je) in the cAMP assay.

rCB1 [2] = molecular target: T2, rCB1; assay: rCB1 competition-equilibrium binding with [3H]CP-55,940, rat brain membranes; design: Frozen rat brains (CB1 source) are obtained from Pel-Freeze Biologicals; tissue Pel-Freeze Biologicals (Rogers, AK); host or cells: rat brain membranes
Description: Frozen rat brains (CB1 source) are obtained from Pel-Freeze Biologicals (Rogers, AK) and stored at −80° C. until use. Membranes are prepared according to the method described by Dodd et al. and used in our laboratory as reported.
as §2, §3

hCB2 [3] = molecular target: T3, hCB2 (Homo sapiens, UniProt P34972); assay: hCB2 competition-equilibrium binding with [3H]CP-55,940, HEK293 membranes
T3 construct: expressed in transfected cells; host or cells: HEK293
T3 sequence (P34972 whole entry): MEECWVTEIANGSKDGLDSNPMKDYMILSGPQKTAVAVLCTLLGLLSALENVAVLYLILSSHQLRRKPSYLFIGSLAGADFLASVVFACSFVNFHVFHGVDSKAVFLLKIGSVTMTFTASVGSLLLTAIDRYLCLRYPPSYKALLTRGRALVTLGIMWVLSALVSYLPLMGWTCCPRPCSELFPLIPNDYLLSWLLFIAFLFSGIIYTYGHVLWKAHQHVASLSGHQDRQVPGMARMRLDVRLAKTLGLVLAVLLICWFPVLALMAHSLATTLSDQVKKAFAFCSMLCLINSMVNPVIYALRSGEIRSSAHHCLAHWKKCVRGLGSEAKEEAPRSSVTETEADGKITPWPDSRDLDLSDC
Description: as §1, §2, §3

hCB2 [4] = molecular target: T3, hCB2; assay: cAMP assay, hCB2; assay type: cell-based; conditions: for Emax: cAMP assay
Description: as §4

rats = assay: Hypothermia assay (FIG. 3A); assay type: in vivo, rat; conditions: change in body temperature vs time after injection, compared to AM10843
mice = assay: Analgesia assay, tail flick / tail immersion (FIG. 3B); assay type: in vivo, mouse; conditions: iso-active doses, compared with nabilone (AM10806) and AM10843
Description: Some of the disclosed compounds were tested in vivo using two well defined rodent assays for cannabinergic activity, the analgesia and the hypothermia assays. The analgesia assay (tail immersion test) determines the ability of a test compound to activate cannabinergic signaling, through modulation of cannabinoid receptors, and thereby reduce nociceptive pain. The hypothermia test determines the ability of a test compound to act as a central CB1 agonist and decrease the body temperature. […] The details of both assays are described below.
Analgesia Assay. C57BL6/J mice (Jackson Laboratories, Bar Harbor Maine) were single housed at least 1 h before start of experiment. Food and water were removed immediately before the first injection.
Route of administration=i.p. Volume=1 mL/100 g body weight.
Tail withdrawal test: 52° C. water bath (use bags). Bag was made of stapled surgery sheets to form a small pocket the size of a mouse. […] The tip of the mouse's tail was dipped into the warm water, with 1 cm submerged.

[5] = background statement; cited from earlier work

T1 sequence (P47936 whole entry): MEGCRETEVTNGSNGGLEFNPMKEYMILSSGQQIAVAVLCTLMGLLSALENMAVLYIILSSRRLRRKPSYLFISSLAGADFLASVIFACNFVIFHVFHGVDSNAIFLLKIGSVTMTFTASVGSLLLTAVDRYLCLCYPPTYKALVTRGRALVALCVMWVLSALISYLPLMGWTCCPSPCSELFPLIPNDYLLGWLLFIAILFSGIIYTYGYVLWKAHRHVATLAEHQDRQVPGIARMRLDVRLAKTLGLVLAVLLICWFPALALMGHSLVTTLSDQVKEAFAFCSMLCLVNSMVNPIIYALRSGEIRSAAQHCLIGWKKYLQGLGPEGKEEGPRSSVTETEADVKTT

Compound | Ki (mCB2) [nM] | EC50 (rCB1 [1]) [nM] | Emax (rCB1 [1]; cAMP assay) [%] | Ki (rCB1 [2]) [nM] | Ki (hCB2 [3]) [nM] | EC50 (hCB2 [4]) [nM] | Emax (hCB2 [4]) [%] | duration of hypothermic effect (rats) | duration of analgesic effect (tail flick) (mice) | Ki (mCB2; Table 9, Formula (Ie), read-out: mCB2 (Ki)) [nM] | EC50 (rCB1 [1]; cAMP assay, read-out: rCB1 EC50) [nM] | Ki (rCB1 [2]; Table 9, Formula (Ie), read-out: rCB1 (Ki)) [nM] | Ki (hCB2 [3]; Table 9, Formula (Ie), read-out: hCB2 (Ki)) [nM] | slow and erratic absorption [5] [h]
CC(C)(C(=O)OCCCC#N)c1cc(O)c2c(c1)OC(C)(C)[C@@H]1CCC(=O)C[C@@H]21 [8 AM10811, 3-Cyanopropyl-2-((6aR,10aR)-1-hydroxy-6,6-dimethyl-9-oxo-6a,7,8,9,10,10a-hexahydro-6H-benzo[c]chromen-3-yl)-2-methylpropanoate] | 1.1 ± 0.4 | 0.4 ± 0.06 | 87 | 0.7 ± 0.03 | 6.2 ± 2.7 | 0.1 ± 0.03 | 77 | shorter acting |  |  |  |  |  | 
CCCOC(=O)CC(C)(C)c1cc(O)c2c(c1)OC(C)(C)[C@@H]1CCC(=O)C[C@@H]21 [18 AM10819, Propyl-3-((6aR,10aR)-1-hydroxy-6,6-dimethyl-9-oxo-6a,7,8,9,10,10a-hexahydro-6H-benzo[c]chromen-3-yl)-3-methylbutanoate] | 26 ± 3.6 | 15.9 ± 3.6 | 90 | 11 ± 1.4 | 90 ± 11.3 | 0.2 ± 0.09 | 82 |  | shorter acting |  |  |  |  | 
CCCCOC(=O)C(C)(C)c1cc(O)c2c(c1)OC(C)(C)C1CCC(=O)CC21 (centres unmarked) [AM 10843] |  | 1 ± 0.3 | 83 |  |  | 1.1 ± 2.3 | 80 |  |  |  |  |  |  | 
CC(C)(C(=O)OCCCN=[N+]=[N-])c1cc(O)c2c(c1)OC(C)(C)[C@@H]1CCC(=O)C[C@@H]21 [Compound 9, 3-Azidopropyl-2-((6aR,10aR)-1-hydroxy-6,6-dimethyl-9-oxo-6a,7,8,9,10,10a-hexahydro-6H-benzo[c]chromen-3-yl)-2-methylpropanoate] | 4 | 0.2 | 52 | 0.13 | 3.1 | 2.1 | 87 |  |  |  |  |  |  | 
CCCCCOC(=O)C(C)(C)c1cc(O)c2c(c1)OC(C)(C)[C@@H]1CCC(=O)C[C@@H]21 [Compound 34c, Pentyl 2-((6aR,10aR)-1-hydroxy-6,6-dimethyl-9-oxo-6a,7,8,9,10,10a-hexahydro-6H-benzo[c]chromen-3-yl)-2-methylpropanoate] | 6.1 ± 1.1 | 8.9 ± 2.3 | 94 | 0.4 ± 0.01 | 11.5 ± 1.6 | 8.4 ± 1.8 | 46 |  |  |  |  |  |  | 
CC(C)(C(=O)OCCCN1CCOCC1)c1cc(O)c2c(c1)OC(C)(C)[C@@H]1CCC(=O)C[C@@H]21 [Compound 34g, 3-Morpholinopropyl 2-((6aR,10aR)-1-hydroxy-6,6-dimethyl-9-oxo-6a,7,8,9,10,10a-hexahydro-6H-benzo[c]chromen-3-yl)-2-methylpropanoate] |  |  | 78 |  |  |  |  |  |  | 91.7 ± 20.4 | 4.2 | 17 ± 3.5 | 18.2 ± 4.1 | 
CCCCSC(=O)C(C)(C)c1cc(O)c2c(c1)OC(C)(C)[C@@H]1CCC(=O)C[C@@H]21 [Compound 34h, S-Butyl 2-((6aR,10aR)-1-hydroxy-6,6-dimethyl-9-oxo-6a,7,8,9,10,10a-hexahydro-6H-benzo[c]chromen-3-yl)-2-methylpropanethioate] | 5 ± 1.4 | 0.2 ± 0.04 | 89 | 0.7 ± 0.03 | 16 ± 2.4 | 83.4 ± 4.7 | 72 |  |  |  |  |  |  | 
CCCCCc1cc(O)c2c(c1)OC(C)(C)[C@@H]1CCC(C)=C[C@@H]21 [Dronabinol] |  |  |  |  |  |  |  |  |  |  |  |  |  | 2 to 6
